Legend:
[1] = tested on: tissue factor preparation (saline extract of baboon brain); experiment: Clotting assay in normal baboon plasma with baboon brain tissue factor; type: biochemical
Description: The samples were mixed and briefly incubated at 37° C. The samples were added to an Electra 800 Automatic Coagulation Timer (Medical Laboratories Automation, Pleasantville, N.Y.). […] A tissue factor preparation was made as a saline extract of baboon brain from freshly frozen brain tissue and characterized for its ability to initiate coagulation in baboon plasma. A concentration of tissue factor that gave a clotting time of about 40 seconds was selected.

[2] = tested on: cell-surface tissue factor on baboon smooth muscle cells; experiment: Cell-surface Factor Xa generation on baboon SMCs; type: cell-based
Text: A cell-surface chromogenic assay was developed, essentially as described in Example VIII above, to measure the efficacy of DEGR-FVIIa to block FVIIa binding to cell-surface tissue factor and the subsequent conversion of Factor X to Factor Xa on monolayers of baboon smooth muscle cells (SMCs). This method is a modification of those described by Sakai et al., J. Bio. Chem. 264:9980-9988 (1989) and Wildgoose et al., Proc. Natl. Acad. Sci. USA. 87:7290-7294 (1990). Baboon SMCs were obtained from the University of Washington, Seattle, Wash., and were cultured from aortic explants. The baboon SMCs were plated into 96-well culture dishes at a concentration of 8,000 cells/well in 200 μl/well DMEM culture media supplemented with 10% fetal calf serum, and maintained in this media for 4 days at 37° C. in 5% CO2. At the time of assay 110 μl of culture media was removed, and increasing concentrations of FVIIa or FVIIa in combination with DEGR-FVIIa were added to wells. A standard curve for FVIIa concentration was generated, ranging from 5 nM to 0.04 nM. […] Twenty-five microliters per well of 0.8 mM S-2222, a factor Xa-specific chromogenic substrate, in Tris buffer was added and the absorbance at 405 nm read after 60 mins in a Thermomax microplate reader (Molecular Devices Corp., Menlo Park, Calif.).

[3] = tested on: platelet accumulation at sites of arterial thrombosis; experiment: Platelet accumulation on endarterectomized baboon aorta in an extracorporeal shunt; type: in vivo
Text: A model of aortic endarterectomy was utilized in baboons, essentially as described by Lumsden et al. (Blood 81:1762-1770 (1993)). A section of baboon aorta 1-2 cm in length was removed, inverted and scraped to remove the intima of the artery and approximately 50% of the media. The artery was reverted back to its correct orientation, cannulated on both ends and placed into an extracorporeal shunt in a baboon, thereby exposing the mechanically injured artery to baboon blood via the shunt. Just prior to opening of the shunt to the circulating blood, ^111In-labeled autologous platelets were injected intravenously into the animal. The level of platelet accumulation at the site of the injured artery was determined by real-time gamma camera imaging.
The injured arteries were measured continuously for 60 minutes. […] At a 1.0 mg/kg bolus injection, approximately 90% of platelet accumulation was inhibited at 1 hour post drug administration.

gram-negative bacteremia = experiment: Survival of treated baboons; type: in vivo, baboon
[4] = tested on: fibrin deposition associated with endotoxemia; experiment: Fibrin deposition in kidneys and lungs in rabbits; type: in vivo, rabbit
[5] = target: T1, cell-surface tissue factor on rat smooth muscle cells (Rattus norvegicus, UniProt P42533); experiment: Dose-dependent cell-surface chromogenic activity on rat smooth muscle cells; type: cell-based
T1 construct: endogenous in cells; host or cells: rat vascular smooth muscle cells
T1 sequence (P42533 29-295): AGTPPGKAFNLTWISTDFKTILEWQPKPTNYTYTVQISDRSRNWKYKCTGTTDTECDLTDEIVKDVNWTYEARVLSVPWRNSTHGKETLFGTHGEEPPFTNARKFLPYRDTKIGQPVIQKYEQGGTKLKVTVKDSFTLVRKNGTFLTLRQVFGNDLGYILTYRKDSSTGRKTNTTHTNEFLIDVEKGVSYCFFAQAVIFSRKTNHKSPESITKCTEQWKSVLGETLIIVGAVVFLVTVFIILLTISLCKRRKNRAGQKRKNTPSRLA
Description: Rat vascular smooth muscle cells were plated into 96-well culture dishes at 4,000 cells per well in growth medium supplemented with 1% fetal calf serum (as in Table 4 without 10% fetal calf serum). […] The cells were incubated with the Factor VII mixtures for 2 hours at 37° C. After incubation, the cells were washed and incubated with 50 μl of 200 nM Factor X in tris buffered saline for 5 minutes at room temperature. Each well had 25 μl of 0.5 M EDTA and 25 μl of […] S-2222 (Kabi Pharmacia) added to it, and the plates were incubated for 40 minutes at room temperature. Chromogenic activity was analyzed at 405 nm in a microplate reader as described above.

DEGR-Factor VIIa: Recombinant human Factor VIIa with its active site derivatized by Dansyl-L-Glu-Gly-Arg-chloromethyl Ketone (DEGRck)
Clotting time ([1]; 0.5 μg/ml plasma): 46.2 s | Clotting time ([1]; 1.0 μg/ml plasma): 50.8 s | Clotting time ([1]; 2.5 μg/ml plasma): 64.5 s | Clotting time ([1]; 5.0 μg/ml plasma): 108.1 s | Clotting time ([1]; 10.0 μg/ml plasma): 158.4 s | inhibition in the generation of Factor Xa chromogenic activity ([2]; 10-fold lower level of DEGR-FVIIa than FVIIa (5 nM)): 40% | inhibition of the chromogenic activity ([2]; equal molar ratio of DEGR-FVIIa to FVIIa (5 nM)): > 90% | platelet accumulation ([3]; baboon, 0.005 mg/kg bolus injection): inhibited platelet accumulation | inhibition of platelet accumulation ([3]; baboon, 1.0 mg/kg bolus injection, 1 hour post drug administration): approximately 90% | thrombus formation (platelet deposition) ([3]; bolus injection, arteries measured over 60 minutes, versus saline-treated controls): significantly inhibited the development of platelet-rich thrombi | survival (gram-negative bacteremia): prolong survival of treated animals | fibrin deposition in kidneys and lungs [4]: dose-response effect for blocking fibrin deposition in kidneys and lungs | inhibition of the chromogenic activity ([5]; 1:1 molar ratio of DEGR-Factor VIIa:Factor VIIa): approximately 95% | OD405 ([5]; DEGR-Factor VIIa 1.56 nM co-incubated with 100 nM Factor VIIa): .116 | OD405 ([5]; DEGR-Factor VIIa 6.25 nM co-incubated with 100 nM Factor VIIa): .073 | OD405 ([5]; DEGR-Factor VIIa 25.00 nM co-incubated with 100 nM Factor VIIa): .026 | OD405 ([5]; DEGR-Factor VIIa 100.00 nM co-incubated with 100 nM Factor VIIa): .014 | OD405 ([5]; DEGR-Factor VIIa .39 nM co-incubated with 100 nM Factor VIIa): .176

Source: patent US20040087498A1, “Modified factor VII” (Novo Nordisk Health Care AG, priority 1991, published 2004)
